Patent publication US20120245229A1, “METHOD FOR TREATING NEUROPATHIC PAIN” (priority 2009, published 2012)

Tests used:
Assay type in all cases: in vivo, mice
[1] = tested on: complete Freund's adjuvant (CFA)-evoked heat hyperalgesia; experiment: CFA-evoked heat hyperalgesia (paw withdrawal latency, Hargreaves); details: for reduction of heat hyperalgesia: 10 ng i.t., post-CFA day 3, 1 h after injection
Experimental: (§1) Animals and pain models. Adult CD1 mice (male, 25-32 g) were used for most experiments. Knockout mice were used lacking TNFR1/II (Tnfrsf1a/1b^−/−) and TRPV1 (Trpv1^−/−) and C57BL/6 wild-type control mice, all from Jackson, for some experiments. All animal procedures performed in this study were approved by the Harvard Medical Area Standing Committee on Animals. 20 μl of diluted formalin (5%), carrageenan (CRG, 1%), or complete Freund's adjuvant (CFA) were injected into the plantar surface of a hindpaw to produce acute, persistent, or chronic inflammatory pain, respectively. Postoperative pain was also produced through hindpaw incision^36 and neuropathic pain by ligation of the spinal nerve^37.
Reagents and administration. RvE1 and RvD1 were suspended in 1% or 10% ethanol as vehicle for investigating acute (<1 h) and persistent (1-6 h) effects of resolvins on inflammatory pain. The reagents (10 μl) were delivered to the cerebral spinal fluid via intrathecal injection made by a spinal cord puncture between the L5 and L6 level with a 30G needle^38.
(§2) Behavioral analysis. Mice were habituated in the testing environment for two days and performed behavioral testing in a blinded manner. Formalin-evoked spontaneous inflammatory pain was assessed by measuring duration (seconds) animals spent on licking/flinching the affected paws every 5 min for 45 min. Capsaicin-induced spontaneous pain was aslo assessed for 10 min. For testing mechanical sensitivity, mice were put in boxes on an elevated metal mesh floor and stimulated hindpaw with a series of von Frey hairs with logarithmically incrementing stiffness (0.02-2.56 grams, Stoelting), presented perpendicular to the plantar surface. It was determined the 50% paw withdrawal threshold using Dixon's up-down method^40. For testing heat sensitivity, mice were placed in plastic boxes and tested heat sensitivity using Hargreaves radiant heat apparatus (IITC Life Science Inc.). The basal paw withdrawal latency was adjusted to 9-12 seconds and set a cut-off of 20 seconds to prevent tissue damage. The percent maximal possible antinociceptive effect (% M.P.E) was calculated using the equation % M.P.E.=[(PL−BL2)/(BL1−BL2)]×100. BL1, baseline latency before inflammation; BL2, baseline latency after inflammation but before drug injection; PL, latency post drug injection.
Intrathecal injection. To avoid systemic effects of drugs and target spinal mechanisms, drugs were delivered into cerebral spinal fluid (CSF) space around lumbosacral spinal cord via intrathecal (i.t.) administration. Spinal cord puncture was made with a 30G needle between the L5 and L6 level to deliver the reagents (10 μl) to the cerebral spinal fluid (Hylden and Wilcox, 1980)^5. […] In addition to spinal cord cells, intrathecal drug administration also affects DRG cells^6,7.
The anti-hyperalgesic efficacy of RvE1 prepared in 1% and 10% ethanol was compared on post-CFA day 3.

[2] = tested on: intrathecal TNF-α-induced hypersensitivity; experiment: Intrathecal TNF-α-induced heat hyperalgesia and mechanical allodynia
Experimental: as §2, with “The percent maximal possible antinociceptive effect (% M.P.E) was calculated using the equation % M.P.E.=[(PL−BL2)/(BL1−BL2)]×100.” left out, “injection. Intrathecal injection: […] To examine whether pretreatment of RvE1 attenuates capsaicin-induced acute spontaneous pain, RvE1 and capsaicin were mixed and injected at the same time (FIG. 3f).” for “injection.”

[3] = tested on: carrageenan (CRG)-elicited heat hyperalgesia; experiment: Carrageenan (CRG)-elicited heat hyperalgesia; details: intraplantar pretreatment, 20 ng, 10 min before carrageenan
Experimental: as §1, §2
Resolvins were also used for intraplantar injection. […]

neutrophil infiltration = experiment: Myeloperoxidase (MPO) assay of neutrophil infiltration in the inflamed paw; details: intraplantar pretreatment; 4 h after CRG injection
Experimental: Myeloperoxidase assay. Paw inflammation is associated with infiltration of neutrophils (polymorphonuclear cells), and myeloperoxidase (MPO) activity is often used to quantify neutrophil activation to evaluate the magnitude of paw inflammation. To determine MPO assay, fresh skin tissues were suspended in phosphate buffer and homogenized. The suspension was centrifuged and the supernatant was assayed for MPO activity using a MPO Activity Assay Kit (Northwest Life Science Specialties, LLC). Each reaction was performed according to manufacturer's protocol. Briefly, hypochlorous acid (HOCl) is formed from MPO catalyzed reaction between chloride and hydrogen peroxide. HOCl is rapidly trapped by β-amino acid taurine to form a stable oxidant taurine chloramine. Taurine chloramine is then allowed to react with 5-thio-2-nitrobenzoic acid (TNB). TNB has a chromophore that has maximal absorbance at 412 nm while its reaction product with taurin chloramine is colorless. The color change is detected by spectrophotometry. By following the decrease of absorbance at 412 nm, MPO activity is measured. One unit is the amount of MPO that can produce 1.0 nmole of taurine chloramine at pH 6.5 and 25° C. during 30 minutes in the presence of 100 mM chloride and 100 μM of hydrogen peroxide.

CC[C@@H](O)/C=C/C=C\C[C@@H](O)/C=C/C=C/C=C\[C@@H](O)CCCC(=O)O [RvE1, 5S,12R,18R-trihydroxyeicosapentaenoic acid]
reduction of heat hyperalgesia ([1]; vehicle 1% ethanol): 54.7%
reduction of heat hyperalgesia ([1]; vehicle 10% ethanol): 55.7%
reduction in hyperalgesia ([1]; 10 ng intrathecal, post-CFA day 3, 15 min after administration): ~75%
potency of 10 ng RvE1 compared with 10 μg NS-398 ([1]; intrathecal, CFA heat hyperalgesia, 1-6 h): more potent than 10 μg COX-2 inhibitor NS-398
mechanical allodynia induced by TNF-α ([2]; intrathecal RvE1 pretreatment): attenuated
TNF-α-induced heat hyperalgesia ([2]; spinal (intrathecal) RvE1 mixed with TNF-α 20 ng): substantially reduced
CRG-evoked heat hyperalgesia [3]: substantially attenuated
neutrophil infiltration (MPO activity) (neutrophil infiltration): reducing
